Test results as given in US8426447B2, “Spiro-tricyclic ring compounds as beta-secretase modulators and methods of use” (Amgen Inc., priority 2008, dated 2013).
Blank lines part the entries; values can stand above or below the compound they belong to.

How the values were obtained:
BACE1 [1] = target: T1, BACE1 (Homo sapiens, UniProt P56817); experiment: In Vitro Enzymatic BACE FRET (Fluorescence Resonance Energy Transfer) Assay; type: biochemical; settings: read-out: BACE1 FRET assay
Outline: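 Fluorescence read-out after Tris addition raises pH to neutrality and ends the reaction. Before that, a peptide substrate carrying fluorophore and quencher across the BACE cleavage site (50 nM) is incubated with enzyme for one hour at pH 4.2 in acetate containing 10% DMSO and sub-micellar genapol.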

BACE1 [2] = target: T1, BACE1; experiment: In Vitro BACE Cell-based Assay (HEK cell assay): Aβ40 in conditioned medium of cells stably expressing Amyloid Precursor Protein, sandwich ELISA; settings: read-out: HEK cell assay
Outline: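 Conditioned medium Aβ40 by ELISA: pAb40 capture 3 h 4° C., biotin-6E10 detection 2 h 4° C., Streptavidin-Europium TRF. IC50 fitted from % control.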

[3] = in vitro BACE FRET enzyme assay, IC50 class symbols
[4] = HEK cell-based assay, Aβ40 in conditioned medium, IC50 class symbols

T1 sequence (P56817 46-501, species assumed): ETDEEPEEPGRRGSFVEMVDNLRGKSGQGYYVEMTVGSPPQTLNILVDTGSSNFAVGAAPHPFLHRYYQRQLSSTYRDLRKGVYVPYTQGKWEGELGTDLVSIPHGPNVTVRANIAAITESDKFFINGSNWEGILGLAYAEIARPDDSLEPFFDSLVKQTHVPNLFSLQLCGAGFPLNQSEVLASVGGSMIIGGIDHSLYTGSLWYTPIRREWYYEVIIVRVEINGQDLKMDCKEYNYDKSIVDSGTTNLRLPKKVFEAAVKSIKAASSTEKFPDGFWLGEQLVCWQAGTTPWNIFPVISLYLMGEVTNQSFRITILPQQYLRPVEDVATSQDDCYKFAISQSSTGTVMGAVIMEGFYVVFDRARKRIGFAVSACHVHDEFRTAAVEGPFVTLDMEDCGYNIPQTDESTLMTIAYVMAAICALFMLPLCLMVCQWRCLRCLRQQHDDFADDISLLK

SMILES: NC1=N[C@@]2(CO1)c1cc(-c3cccc(Cl)c3)ccc1Oc1cnc(C3=CCOCC3)cc12 [compound 427, (5S)-7-(3-chlorophenyl)-3-(3,6-dihydro-2H-pyran-4-yl)spiro[chromeno[2,3-c]pyridine-5,4′-[1,3]oxazol]-2′-amine]
IC50 (BACE1 [1]): < 0.1 µM | IC50 (BACE1 [2]; HEK cells): < 0.1 µM

SMILES: NC1=N[C@]2(CO1)c1cc(-c3ccccc3)ccc1Oc1ncccc12 [compound 598]
IC50 (BACE1 [1]; Table IV, class symbols): 1 to 5 µM | IC50 (BACE1 [2]; Table IV, class symbols): > 5 µM

SMILES: Cc1ccc(-n2ccc3c(c2=O)[C@@]2(COC(N)=N2)c2cc(-c4cccnc4)ccc2O3)cc1 [compound 566]
IC50 (BACE1 [1]; Table IV, class symbols): 0.1 to 1 µM | IC50 (BACE1 [2]; Table IV, class symbols): 0.1 to 1 µM

SMILES: CC(C)(C)CCOc1nccc2c1[C@@]1(COC(N)=N1)c1cc(-c3cncnc3)ccc1O2 [compound 985]
IC50 (BACE1 [1]): 0.1 to 1 µM | IC50 (BACE1 [2]): > 5 µM

SMILES: NC1=N[C@@]2(CO1)c1cc(-c3cncc(F)c3)ccc1Oc1cnc(C3CCOCC3)cc12 [compound 331]
IC50 (BACE1 [1]; [3]): < 0.1 µM | IC50 (BACE1 [2]; [4]): < 0.1 µM

SMILES: NC1=N[C@]2(CO1)c1cc(Oc3ccccn3)ccc1Oc1ccc(-c3cncnc3)cc12 [compound 209]
IC50 (BACE1 [1]; Table III, IC50's in uM ranges): < 0.1 µM | IC50 (BACE1 [2]; Table III, IC50's in uM ranges): 0.1 to 1 µM

SMILES: CCOC(=O)c1ccc(-c2ccc3c(c2)[C@]2(COC(N)=N2)c2cc(-c4cccnc4)ccc2O3)o1 [compound 725]
IC50 (BACE1 [1]): < 0.1 µM | IC50 (BACE1 [2]): 0.1 to 1 µM

SMILES: NC1=N[C@@]2(CO1)c1cc(-c3ccccc3F)ccc1Oc1cnc(C3=CCOCC3)cc12 [compound 426]
IC50 (BACE1 [1]): < 0.1 µM | IC50 (BACE1 [2]; HEK cells): 0.1 to 1 µM

SMILES: CC(C)CCCOc1nccc2c1[C@@]1(COC(N)=N1)c1cc(-c3cccnc3)ccc1O2 [compound 843]
IC50 (BACE1 [1]; Table IV, class symbols): > 5 µM | IC50 (BACE1 [2]; Table IV, class symbols): > 5 µM

SMILES: NC1=N[C@@]2(CO1)c1cc(-c3cccnc3)ccc1Oc1cnc(C3=CCCCC3)cc12 [compound 848]
IC50 (BACE1 [1]; Table IV, class symbols): < 0.1 µM | IC50 (BACE1 [2]; Table IV, class symbols): < 0.1 µM

Next, values leading:

IC50 (BACE1 [1]; Table III, IC50's in uM ranges): 1 to 5 µM | IC50 (BACE1 [2]; Table III, IC50's in uM ranges): 1 to 5 µM
SMILES: Cn1cncc1-c1ccc2c(c1)[C@]1(COC(N)=N1)c1cc(OCC(C)(C)C)ccc1O2 [compound 187]

IC50 (BACE1 [1]): 0.1 to 1 µM | IC50 (BACE1 [2]): 1 to 5 µM
SMILES: COc1ncc(-c2ccc3c(c2)[C@@]2(COC(N)=N2)c2cc(OCC(C)(C)C)ccc2O3)cn1 [compound 977]

IC50 (BACE1 [1]): 0.1 to 1 µM | IC50 (BACE1 [2]): 1 to 5 µM
SMILES: CC(C)(C)COc1ccc2c(c1)[C@@]1(COC(N)=N1)c1ccccc1O2 [compound 665]

IC50 (BACE1 [1]): < 0.1 µM | IC50 (BACE1 [2]; HEK cells): < 0.1 µM
SMILES: CC(C)(C)C#Cc1cc2c(cn1)Oc1ccc(-c3cncnc3)cc1[C@@]21COC(N)=N1 [compound 512, (5S)-3-(3,3-dimethyl-1-butyn-1-yl)-7-(5-pyrimidinyl)spiro[chromeno[2,3-c]pyridine-5,4′-[1,3]oxazol]-2′-amine]

IC50 (BACE1 [1]; [3]): < 0.1 µM | IC50 (BACE1 [2]; [4]): < 0.1 µM
SMILES: CC(C)(C)/C=C/c1ccc2c(n1)[C@]1(COC(N)=N1)c1cc(-c3cccnc3)ccc1O2 [compound 398]

IC50 (BACE1 [1]; Table III, IC50's in uM ranges): 1 to 5 µM | IC50 (BACE1 [2]; Table III, IC50's in uM ranges): > 5 µM
SMILES: NC1=N[C@]2(CO1)c1cc(OCC3CCOC3)ccc1Oc1ccc(-c3cncnc3)cc12 (stereo partly drawn) [Example 132, (S)-2′-(pyrimidin-5-yl)-7′-((tetrahydrofuran-3-yl)methoxy)-5H-spiro[oxazole-4,9′-xanthen]-2-amine]

IC50 (BACE1 [1]): 0.1 to 1 µM | IC50 (BACE1 [2]): 1 to 5 µM
SMILES: Cc1cscc1-c1ccc2c(c1)[C@@]1(COC(N)=N1)c1cc(OCC(C)(C)C)ccc1O2 [compound 738]

IC50 (BACE1 [1]; Table III, IC50's in uM ranges): 0.1 to 1 µM | IC50 (BACE1 [2]; Table III, IC50's in uM ranges): 0.1 to 1 µM
SMILES: CC(=O)COc1ccc2c(c1)[C@]1(COC(N)=N1)c1cc(C#CC3CC3)ccc1O2 [compound 200]

IC50 (BACE1 [1]; Table IV, class symbols): 0.1 to 1 µM | IC50 (BACE1 [2]; Table IV, class symbols): 0.1 to 1 µM
SMILES: CC(=O)Cc1ccc2c(c1)[C@]1(COC(N)=N1)c1cc(-c3cccnc3)ccc1O2 [compound 658]

IC50 (BACE1 [1]; [3]): < 0.1 µM | IC50 (BACE1 [2]; [4]): < 0.1 µM
SMILES: CC(C)(F)COc1cc(F)c2c(c1)[C@]1(COC(N)=N1)c1cc(-c3cccnc3)ccc1O2 [compound 381]

IC50 (BACE1 [1]; [3]): 0.1 to 1 µM | IC50 (BACE1 [2]; [4]): 1 to 5 µM
SMILES: CC(C)(C)COc1cnc2c(c1)[C@]1(COC(N)=N1)c1cc(Br)ccc1O2 [compound 388]

IC50 (BACE1 [1]): 0.1 to 1 µM | IC50 (BACE1 [2]): 1 to 5 µM
SMILES: Cc1occc1-c1ccc2c(c1)[C@@]1(COC(N)=N1)c1cc(OCC(C)(C)C)ccc1O2 [compound 739]

IC50 (BACE1 [1]; Table III, IC50's in uM ranges): < 0.1 µM | IC50 (BACE1 [2]; Table III, IC50's in uM ranges): < 0.1 µM
SMILES: CC(C)(C)OCCOc1ccc2c(c1)[C@]1(COC(N)=N1)c1cc(-c3cncnc3)ccc1O2 [compound 158]

IC50 (BACE1 [1]): > 5 µM | IC50 (BACE1 [2]): > 5 µM
SMILES: CC(C)(C)COc1ccc2c(n1)[C@@]1(COC(N)=N1)c1cc(Br)ccc1O2 [compound 734]
